In patent US20040034049A1, “Promoters for the proliferation and differentiation of stem cells and/or neuron precursor cells” (priority 2003, published 2004):

System: rat mixed glia culture
Test: Neural neogenesis promoting effect in rat mixed glia culture (differentiation assay, β III tubulin positive cell count)
Conditions: 120 h, 1 μM compound, 5 days differentiation, β III tubulin positive cells, % activity based on non-treatment control, read-out: Differentiation or neogenesis promoting activity (%)
Source text: Neural Neogenesis Promoting Effect in Rat Mixture Glia Culture
A neonatal SD rat was purchased from Charles River Japan, Inc. A nylon cell strainer with 40 micron in diameter was purchased from Becton Dickinson. DMEM/F12 Medium, antibiotics, N2 additives were purchased from LIFE TECHNOLOGY. Anti-β III-tubulin antibody was purchased from Sigma. DAKO EnVision+/HRP kit was purchased from DAKO Japan. Other reagents were commercial products of analytical grade.
A rat mixed glia culture was made from a hippocampus of a neonatal SD rat of 2 days old. The neonate was anesthetized by ice-cooling, sacrificed by decapitation and the brain was taken out immediately. The meninx was removed carefully, and the […] was separated. The hippocampus was pulverized mechanically by passing through a nylon cell strainer with 40 micron in diameter. The cell dispersion was overlaid on serum, and the cells were fractionated by a non-continuous gradient centrifugation. The pellet was washed twice with a growth medium (DMEM/F12 supplemented with 10% FBS and antibiotics) and then dispersed. The mixed glia culture was inoculated onto a collagen-coated 96-well multiplate at the density of 1×10^5 cells per well, and incubated for 5 days.
After incubating for 5 days, the mixed glia culture was subjected to a differentiation assay. The growth medium was replaced with a serum-free medium (DMEM/F12 supplemented with N2 additives and antibiotics) and the test compound was added simultaneously. After allowing to undergo the differentiation for 5 days followed by fixation with 4% p-formaldehyde, a mouse anti-β III tubulin monoclonal antibody and DAKO EnVision+/HRP kit was used to effect an immunostaining.
The β III tubulin positive cells were counted, and the data in the presence (1 μM) of the Compound (I) and the absence (control) were compared.

Going from `COc1cc2c(cc1OC)CN(c1c(C)c(C)c3c(c1C)C(c1ccc(C(C)C)cc1)C(C)(C)O3)C2` (stereo not drawn) [Example 11a, 5,6-dimethoxy-2-[3-(4-isopropylphenyl)-2,2,4,6,7-pentamethyl-2,3-dihydro-1-benzofuran-5-yl]isoindoline] to `COc1cc2c(cc1OC)CN(c1c(C)c(C)c3c(c1C)[C@@H](c1ccc(C)cc1)C(C)(C)O3)C2` [Example 17a, (R)-5,6-dimethoxy-2-[2,2,4,6,7-pentamethyl-3-(4-methylphenyl)-2,3-dihydro-1-benzofuran-5-yl]isoindoline], the activity at 1 µM falls from 478% to 344%.

With `Cc1c(C)c2c(c(C)c1NCc1ccc(F)cc1)C(c1ccc(C(C)C)cc1)C(C)(C)O2` (stereo not drawn) [Example 19b, N-(4-fluorobenzyl)-3-(4-isopropylphenyl)-2,2,4,6,7-pentamethyl-2,3-dihydro-1-benzofuran-5-amine] the activity at 1 µM was 468%.
